Measurements: patent EP2292624A1, “Process for the purification of olanzapine” (LEK Pharmaceuticals d.d., priority 2009, dated 2011)
Where a name gives a salt, the structure may show the parent alone.

Settings: water; printed as 'approximately up to about'

Cc1cc2c(s1)Nc1ccccc1N=C2N1CCN(C)CC1 [oxalic acid addition salt of olanzapine]
aqueous solubility: up to 800 mg/mL
